# Measured values published in the supplement of paper PMC10307832.
# How the values were obtained:
# Experiment in all cases: relative viability (nuclei count vs DMSO), 5 days (fraction); higher = more cells survive
# [1] = compound: CN(C/C=C/C1=CC=C(C=C1)Cl)CC2=CC=CC=C2N(CCO)S(=O)(=O)C3=CC=C(C=C3)OC [KN-93]
# Procedure, shortened: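 Five library-drug doses, separated by factors of √10, were pinned into 1536-well plates holding lung cancer cell lines after an overnight stay at 37 °C. Cells were fixed, permeabilised and Hoechst-stained in one step after 5 days without medium change, then imaged at 4×. Viability compares treated-well with vehicle-well nuclei, counted in MetaXpress, as a median across plates. Passing plates had control CV below 25% and at least one doubling.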
# [2] = compound: CN(C/C=C/C1=CC=C(C=C1)Cl)CC2=CC=CC=C2N(CCO)S(=O)(=O)C3=CC=C(C=C3)OC [KN-93] + CCNC(=O)c1noc(-c2cc(C(C)C)c(O)cc2O)c1-c1ccc(CN2CCOCC2)cc1 [Luminespib] (partner 0.01 µM)
# Procedure, shortened: (§1)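 Lung cancer cell lines were pin-tool dosed in 1536-well plates on the day after seeding, with either a lone drug or a fixed anchor-drug dose plus five library-drug doses (not always all listed) in √10 steps. Nuclei were counted on 4× images after 5 days. Relative viability is the ratio of treated-well to vehicle-well nuclei counts, with each value a median of duplicate plates.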
# [3] = compound: CN(C/C=C/C1=CC=C(C=C1)Cl)CC2=CC=CC=C2N(CCO)S(=O)(=O)C3=CC=C(C=C3)OC [KN-93] + COc1cc2c(Oc3ccc(NC(=O)C4(C(=O)Nc5ccc(F)cc5)CC4)cc3F)ccnc2cc1OCCCN1CCOCC1 [Foretinib] (partner 0.25 µM)
# Procedure, shortened: as §1
# [4] = compound: CN(C/C=C/C1=CC=C(C=C1)Cl)CC2=CC=CC=C2N(CCO)S(=O)(=O)C3=CC=C(C=C3)OC [KN-93] + COc1cccc2cc(-c3nc([C@H]4CC[C@H](C(=O)O)CC4)n4ncnc(N)c34)[nH]c12 [OSI-027] (partner 0.5 µM)
# Procedure, shortened: as §1
# [5] = compound: CN(C/C=C/C1=CC=C(C=C1)Cl)CC2=CC=CC=C2N(CCO)S(=O)(=O)C3=CC=C(C=C3)OC [KN-93] + Cc1cc(Nc2cc(N3CCN(C)CC3)nc(Sc3ccc(NC(=O)C4CC4)cc3)n2)n[nH]1 [Tozasertib] (partner 0.1 µM)
# Procedure, shortened: as §1
# [6] = compound: CN(C/C=C/C1=CC=C(C=C1)Cl)CC2=CC=CC=C2N(CCO)S(=O)(=O)C3=CC=C(C=C3)OC [KN-93] + Cc1nc(Nc2ncc(C(=O)Nc3c(C)cccc3Cl)s2)cc(N2CCN(CCO)CC2)n1 [Dasatinib] (partner 0.075 µM)
# Procedure, shortened: as §1
# [7] = compound: CN(C/C=C/C1=CC=C(C=C1)Cl)CC2=CC=CC=C2N(CCO)S(=O)(=O)C3=CC=C(C=C3)OC [KN-93] + N=C(N)NC(=N)NCCc1ccccc1 [Phenformin] (partner 250 µM)
# Procedure, shortened: as §1
cell line,measurement,setting,value
NCI-H1623,relative viability,[1]; 0.08 µM,0.95
same,relative viability,[1]; 0.253 µM,0.984
same,relative viability,[1]; 2.53 µM,0.956
same,relative viability,[1]; 8 µM,0.958
same,relative viability,[2]; first compound 0.08 µM,0.44
same,relative viability,[2]; first compound 0.253 µM,0.414
same,relative viability,[2]; first compound 2.53 µM,0.654
same,relative viability,[2]; first compound 8 µM,0.457
same,relative viability,[3]; first compound 0.08 µM,0.861
same,relative viability,[3]; first compound 0.253 µM,0.796
same,relative viability,[3]; first compound 2.53 µM,0.994
same,relative viability,[3]; first compound 8 µM,0.726
same,relative viability,[4]; first compound 0.08 µM,0.418
same,relative viability,[4]; first compound 0.253 µM,0.36
same,relative viability,[4]; first compound 2.53 µM,0.393
same,relative viability,[4]; first compound 8 µM,0.416
same,relative viability,[5]; first compound 0.08 µM,0.445
same,relative viability,[5]; first compound 0.253 µM,0.41
same,relative viability,[5]; first compound 2.53 µM,0.41
same,relative viability,[5]; first compound 8 µM,0.439
same,relative viability,[6]; first compound 0.08 µM,0.647
same,relative viability,[6]; first compound 0.253 µM,0.525
same,relative viability,[6]; first compound 2.53 µM,0.536
same,relative viability,[6]; first compound 8 µM,0.393
same,relative viability,[7]; first compound 0.08 µM,0.61
same,relative viability,[7]; first compound 0.253 µM,0.592
same,relative viability,[7]; first compound 2.53 µM,0.672
same,relative viability,[7]; first compound 8 µM,0.453
